Data on five compounds can be found in PMC4910235, “Selenophene and thiophene-core estrogen receptor ligands that inhibit motility and development of parasitic stages of Haemonchus contortus” (Parasites & Vectors, 2016).

In experiment [1] the test system is development of xL3s to L4s of H. contortus. The experiment is described as follows: L4 development assay (xL3 to L4). The experiment is classed as cell-based. The note with it: Haemonchus contortus, 168 h, read-out: L4 development (IC50s in μM). As to the method: The selenophene and thiophene-core ligands (n = 74) (Additional file 1) were screened at a concentration of 20 μM on exsheathed third-stage larvae (xL3s) of H. contortus in 96-well microculture plates (cat. no. 3635; Corning 3650, Life Sciences, Corning, USA) using relevant control compounds (i.e. moxidectin and monepantel), as described previously. In brief, compounds were dissolved to a stock concentration of 10 mM in either dimethyl sulfoxide (DMSO) or methanol (Sigma-Adrich Scientific, St. Louis, USA). These ligands were then individually diluted to the final concentration of 20 μM using Luria Bertani medium (LB) supplemented with 100 IU/ml of penicillin, 100 μg/ml of streptomycin and 2.5 μg/ml of amphotericin (LB*). Compounds were dispensed (in triplicate) into the wells of a 96-well microculture plate using a multichannel pipette. In addition, the negative controls (LB*, LB* + 0.5 % solvent; six wells each), and positive controls (20 μM of monepantel; Zolvix, Novartis Animal Health, Basel, Switzerland and 20 μM of moxidectin; Cydectin, Virbac, Carros, France; triplicate wells) and xL3s (~300/well) were dispensed into wells of the plate using an automated multichannel pipette (Viaflo Assist/II, Integra Biosciences, Zizers, Switzerland). Following a 72 h incubation at 38 °C and 10 % CO2, a video recording (5 s) was taken of each well of the 96-well microculture plate (containing xL3s) using a greyscale camera (Rolera Bolt CMOS, Qimaging Scientific, Surrey, Canada) and a motorised X-Y axis stage (BioPoint 2, Ludl Electronics Products, Hawthorne, USA). Individual videos were processed to calculate a motility index (MI) using an algorithm described previously. MIs were normalised to the negative and positive controls (to remove plate-to-plate variation) using the program Prism (v.6 GraphPad Software, USA). Z’-scores were calculated to validate the performance of the screening assay; reliable assays achieve Z’-scores of between 0.5 and 1 [28]. A compound was recorded as having an activity if it reduced xL3 motility by ≥ 70 % following incubation for 72 h. […] Compounds that reduced the motility of xL3s were also tested for their ability to inhibit the motility of L4s (same protocol as for xL3s) and/or to affect the development of xL3s to L4s. Following the measurement of L4 motility, larvae were re-incubated for 4 more days and fixed with 1 % iodine (50 μl). Then, L4 development was assessed based on the presence of a well-developed mouth/pharynx using a light microscope and expressed as a percentage of the total number of larvae examined (n = 30).
All assays (to assess xL3 motility, L4 development and L4 motility) were performed in triplicate, three times, on separate days.

Experiment [2] relates to L4 stage of H. contortus. The experiment is described as follows: Scanning electron microscopy of treated L4s. The following applies: 100 μM, 24 h. The experiment is classed as cell-based, Haemonchus contortus. The method, then: (§1) SEM was used to assess whether compounds that reduced motility by ≥ 70 % caused structural damage to the larval stages. The xL3s and L4s were cultivated as described previously. Compounds were diluted to a final concentration of 100 μM in LB*, and 50 μl were transferred to wells of a 96-well microculture plate; six wells were used for each treatment and for the negative control which contained LB* and 1 % methanol (AR1115-P2.5 L, RCI; Labscan Limited). The xL3s and L4s were resuspended in LB* at a density of ~6,000 per ml, and 50 μl were transferred into individual wells. Compounds were incubated with the larvae for 24 h at 38 °C and 10 % CO2. Following incubation, for each treatment, the larvae from each of the six wells were pooled into 1.5 ml Eppendorf tubes, washed 3 times in 0.9 % saline at 9,000 g and resuspended in 1 ml of phosphate-buffered saline (PBS). Subsequently, the larvae were fixed in 2.5 % glutaraldehyde in PBS for 2 h at room temperature, rinsed three times in PBS for 15 min, and then post-fixed in 1 % osmium tetroxide for 2 h at room temperature. Fixed larvae were rinsed again 3 times in PBS for 15 min. Then, aliquots of concentrated larvae (200 μl) were incubated on polyethyleneimine (PEI)-coated glass coverslips (pre-prepared by smearing 22 mm square glass coverslips with a 0.1 % solution of PEI and dried by heat under a cool flame). Following this incubation, the excess supernatant was removed, and the coverslips with adhered nematodes were dehydrated in increasing concentrations of ethanol (10, 30, 50, 70, 90 and 100 %) in water for 30 min. The coverslips were dried in a critical point dryer (EM CPD030, Leica, Wetzlar, Germany) and mounted on to aluminium stubs (25 mm) with double-sided carbon tabs. The coverslips were then coated with gold using a Xenosput sputter coater (Dynavac, Australia). The larvae on the coverslips were imaged using a field-emission scanning electron microscope (XL30 Philips, Netherlands) at 2.0 kV using a spot size of two; 12 representative images were taken of each sample.

Experiment [3] deals with xL3 stage of H. contortus. In words: Scanning electron microscopy of treated xL3s. The experiment is classed as cell-based, Haemonchus contortus. The note with it: 100 μM, 24 h. As to the method: as §1

Read-outs that look alike come from different tables or passages of the source.

Turning to `Oc1ccc(-c2ccc(-c3ccc(O)cc3Cl)[se]2)c(Cl)c1` [WZY-2], the IC50 in experiment [1] was 12.2 µM. Also, in experiment [2], the “cuticle damage of L4s by SEM” value is “distinct damage”. The “structural damage of xL3s by SEM” value in experiment [3] was “no structural damage”.

Take `Oc1ccc(-c2cscc2-c2ccc(O)cc2Cl)c(Cl)c1` [MJ-17]: in experiment [1] (7 days), the IC50 amounted to 13.7 µM. Further, the “cuticle damage of L4s by SEM” value in experiment [2] is listed as “distinct damage”. In addition, the “structural damage of xL3s by SEM” value in experiment [3] is reported as “no structural damage”.

For `Cc1cc(O)ccc1-c1ccc(-c2ccc(O)cc2F)s1` [MJ-22], the IC50 in experiment [1] (7 days) stood at 10.5 µM. Besides, the “cuticle damage of L4s by SEM” value in experiment [2] is on record as “distinct damage”. Besides, the “structural damage of xL3s by SEM” value in experiment [3] is listed as “no structural damage”.

For the compound `C[C@](C#N)(COc1cc(C#N)ccc1C(F)(F)F)NC(=O)c1ccc(SC(F)(F)F)cc1` [Monepantel, reference compound], the IC50 in experiment [1] (7 days) was determined as 0.4 µM. In experiment [2], the “cuticle damage of L4s by SEM” value is “cuticle damage”.

Take `CO/N=C1\C[C@]2(C[C@@H]3C[C@@H](C/C=C(\C)C[C@@H](C)/C=C/C=C4\CO[C@@H]5[C@H](O)C(C)=C[C@@H](C(=O)O3)[C@]45O)O2)O[C@H](/C(C)=C/C(C)C)[C@H]1C` [Moxidectin, reference compound]: the IC50 in experiment [1] (7 days) is 12.3 µM. Moreover, in experiment [2], the “cuticle damage of L4s by SEM” value is “did not induce any cuticle damage”.
